Experimental data: US10035778B2, “Meta-azacyclic amino benzoic acid derivatives as pan integrin antagonists” (Saint Louis University, priority 2015, dated 2018)

Experiment: IV cassette pharmacokinetic study in male Sprague-Dawley rats (Saint Louis University)
Format: in vivo
Details: plasma; male Sprague-Dawley rat, 1 mg/kg IV cassette, sampling to 24 h; read-out: plasma t½ after 1 mg/kg IV bolus dose in rat (converted)
Description: (§1) A minimally sufficient volume of dimethylsulfoxide (DMSO) was added to each test compound to achieve solubilization. For intravenous (IV) delivery, compounds were then formulated as solutions in glycerol formal: saline (either 20:80 or 40:60 v/v) (Sigma Chemicals, St. Louis). For oral (PO) administration, compounds were formulated with 0.5% methylcellulose. Five to six compound solutions were combined into a singled mixed solution for IV and PO cassette administration with final DMSO concentrations <0.6% or <1.2%, for the IV and PO cassettes, respectively. Analytes were detected in test samples using an LC/MS/MS (liquid chromatography/mass spectrometry) system consisting of an LC-20AD pump (Shimadzu, Kyoto, Japan), an HTC PAL autosampler (Leap technologies, Carrboro, N.C.), and a Sciex API-4000 mass spectrometer in ESI mode (AB Sciex, Foster City, Calif.). An Amour C18 reverse phase column (Analytical Sales and Services, Pompton Plains, N.J.) was used for chromatographic separation.
(§2) Pharmacokinetic (PK) studies conducted at Saint Louis University used male Sprague-Dawley rats with an initial body weight of 200 to 220 g. IV PK studies were performed with the following compounds: Examples 1-3 and 5-17 and comparison compounds C12-C18, C29, and C30. Animals were allowed free access to food and water. Rats were individually housed and connected to jugular vein catheters. Each cassette formulation was administered intravenously to two rats (1 mL/kg body weight). Each cassette formulation contained 5-6 compounds at 1 mg/kg in either 20:80 or 40/60 glycerol formal/saline (v/v). Blood was collected manually via the catheter into lithium-heparin tubes at 0.017, 0.083, 0.5, 1, 2, 4, 6 and 24 hours post-dose. Animals were euthanized with CO2 at the end of the experiment.
(§3) Internal standard was added to all samples at 200 ng/mL (final), as well as 150 μL of acetonitrile. Plasma samples (50 μL total volume) were diluted with control nave rat plasma as appropriate to bring the sample measurement into the linear dynamic range of the standard curve. The samples were capped and mixed on a multi-plate vortexer for 5 minutes and centrifuged for 5 minutes at 3200 rmp. The supernant was transferred to 96-well sample plate and capped for LC/MS/MS analysis. Compounds were optimized and monitored for their respective MRM transitions. The mobile phases consisted of 0.1% formic acid (aqueous) and 100% acetonitrile (organic) with an Amour C18 reverse phase column (2.1×30 mm, 5 micron) at a flow rate of 0.35 mL/min. The starting phase was 10% acetonitrile for the 0.9 minutes then increased to 90% acetonitrile over 0.4 minutes, and was maintained for an additional 0.2 minutes before returning to 10% acetonitrile over 0.4 minutes. The 10% acetonitrile was held for an additional 1.6 minutes. Peak areas were integrated using Analyst 1.5.1 (AB Sciex, Foster City, Calif.).

half-life [min]	SMILES
30	CC(C)(C)c1cc(Br)cc([C@H](CC(=O)O)NC(=O)CNC(=O)c2cc(O)cc(NC3=NCC(O)CN3)c2)c1 (stereo partly shown) [Example C12, reference compound]
66	CC(C)(C)c1cc(Br)c(O)c([C@H](CC(=O)O)NC(=O)CNC(=O)c2cc(O)cc(NC3=NCC(O)CN3)c2)c1 (stereo partly shown) [Example C13, reference compound]
60	CC(C)(C)c1cc(Br)cc([C@H](CC(=O)O)NC(=O)CNC(=O)c2cc(O)cc(NC3=NCC(O)CN3)c2)c1O (stereo partly shown) [Example C14, reference compound]
36	CC(C)(O)c1cc(Br)cc([C@H](CC(=O)O)NC(=O)CNC(=O)c2cc(O)cc(NC3=NCC(O)CN3)c2)c1 (stereo partly shown) [Example C15, reference compound]
96	CC(C)(O)c1cc(Cl)cc([C@H](CC(=O)O)NC(=O)CNC(=O)c2cc(O)cc(NC3=NCC(O)CN3)c2)c1 (stereo partly shown) [Example C16, reference compound]
48	CC(C)(C)c1cc(Br)cc([C@H](CC(=O)O)NC(=O)CNC(=O)c2cccc(NC(=N)N)c2)c1 [Example C17, reference compound]
72	CC(C)(C)c1cc(Br)cc([C@H](CC(=O)O)NC(=O)CNC(=O)c2cccc(NC3=NCCN3)c2)c1 [Example C18, reference compound]
< 4.8	O=C(O)C[C@H](NC(=O)CNC(=O)c1cc(O)cc(NC2=NCC(O)CN2)c1)c1ccccc1 (stereo partly shown) [Example C29, reference compound]
96	NC(=O)c1cc(Cl)cc([C@H](CC(=O)O)NC(=O)CNC(=O)c2cc(O)cc(NC3=NCC(O)CN3)c2)c1 (stereo partly shown) [Example C30, reference compound]

Experiment: IV cassette pharmacokinetic study in female Sprague-Dawley rats (PRESCOS, LLC)
Format: in vivo
Details: plasma; female Sprague-Dawley rat, 1 mg/kg IV cassette, sampling to 8 h (PRESCOS); read-out: plasma t½ after 1 mg/kg iv bolus dose in rat (converted)
Description: Similar rat PK studies were conducted by PRESCOS, LLC (San Diego, Calif.) for comparison compounds C19-C28. Female Sprague-Dawley rats with an initial body weight of 195 to 220 g were used. Cassette formulations with 1 mg/kg/compound in 40/60 glycerol formal/saline were administered intravenously to three rats. The dosing volume for each animal was 5 mL/kg body weight. Blood samples were collected via a jugular vein catheter at 0.017, 0.25, 0.5, 1, 2, 4 and 8 hours post-dose into K2EDTA tubes. Animals were euthanized with CO2 at the end of the experiment. Sample processing and compound measurement by LC/MS/MS was performed by HT Laboratories (San Diego, Calif.).

half-life [min]	SMILES
25.8	CC(C)(C#N)c1cc(Br)cc([C@H](CC(=O)O)NC(=O)CNC(=O)c2cc(O)cc(NC3=NCC(O)CN3)c2)c1 (stereo partly shown) [Example C19]
22.8	CC(C)(C)c1cc(C#N)cc([C@H](CC(=O)O)NC(=O)CNC(=O)c2cc(O)cc(NC3=NCC(O)CN3)c2)c1 (stereo partly shown) [Example C20]
90	CC(C)(O)c1cc([C@H](CC(=O)O)NC(=O)CNC(=O)c2cc(O)cc(NC3=NCC(O)CN3)c2)cc(C(F)(F)F)c1 (stereo partly shown) [Example C21]
18	O=C(O)C[C@H](NC(=O)CNC(=O)c1cc(O)cc(NC2=NCC(O)CN2)c1)c1cc(Cl)cc(C2(CF)CCOCC2)c1 (stereo partly shown) [Example C22]
12.6	CC(C)(c1cc(Cl)cc([C@H](CC(=O)O)NC(=O)CNC(=O)c2cc(O)cc(NC3=NCC(O)CN3)c2)c1)C(F)(F)F (stereo partly shown) [Example C23]
16.8	CC(O)(c1cc(Cl)cc([C@H](CC(=O)O)NC(=O)CNC(=O)c2cc(O)cc(NC3=NCC(O)CN3)c2)c1)C(F)(F)F (stereo partly shown) [Example C24]
13.8	N#CC1(c2cc(Cl)cc([C@H](CC(=O)O)NC(=O)CNC(=O)c3cc(O)cc(NC4=NCC(O)CN4)c3)c2)CCC1 (stereo partly shown) [Example C25]
15	N#CC1(c2cc(Cl)cc([C@H](CC(=O)O)NC(=O)CNC(=O)c3cc(O)cc(NC4=NCC(O)CN4)c3)c2)CCOCC1 (stereo partly shown) [Example C26]
12.6	CC(O)(c1cc([C@H](CC(=O)O)NC(=O)CNC(=O)c2cc(O)cc(NC3=NCC(O)CN3)c2)cc(C(F)(F)F)c1)C(F)(F)F (stereo partly shown) [Example C27]
18	O=C(O)C[C@H](NC(=O)CNC(=O)c1cc(O)cc(NC2=NCC(O)CN2)c1)c1cc(Br)cc(C2(C(F)F)CC2)c1 (stereo partly shown) [Example C28]

Experiment: Oral (PO) cassette pharmacokinetic study in male Sprague-Dawley rats
Format: in vivo
Details: plasma; male Sprague-Dawley rat, 2 mg/kg oral gavage cassette in 0.5% methylcellulose; read-out: AUC (0-inf) after a 2 mg/kg PO dose in rat
Description: as §1, §2
Oral PK studies were conducted with the following compounds: Examples 1-3 and 5-17 and comparison compounds C12, C14-16 and C29-30. The PO cassette formulations were administered via oral gavage to two rats (10 mL/kg body weight) containing 5-6 compounds per cassette. The oral dose was administered at 2 mg/kg/compound in 0.5% methylcellulose. Blood collection time points were 0.25, 0.5, 1, 2, 4, 6 and 24 hours post-dose into lithium-heparin tubes. Animals were euthanized with CO2 at the end of the experiment.
as §3

AUC(0-inf) [ng·h/mL]	SMILES
205	CC(C)(C)c1cc(Br)cc([C@H](CC(=O)O)NC(=O)CNC(=O)c2cc(O)cc(NC3=NCC(O)CN3)c2)c1 (stereo partly shown) [Example C12, reference compound]
224	CC(C)(C)c1cc(Br)cc([C@H](CC(=O)O)NC(=O)CNC(=O)c2cc(O)cc(NC3=NCC(O)CN3)c2)c1O (stereo partly shown) [Example C14, reference compound]
87	CC(C)(O)c1cc(Br)cc([C@H](CC(=O)O)NC(=O)CNC(=O)c2cc(O)cc(NC3=NCC(O)CN3)c2)c1 (stereo partly shown) [Example C15, reference compound]
62	CC(C)(O)c1cc(Cl)cc([C@H](CC(=O)O)NC(=O)CNC(=O)c2cc(O)cc(NC3=NCC(O)CN3)c2)c1 (stereo partly shown) [Example C16, reference compound]
< 1	O=C(O)C[C@H](NC(=O)CNC(=O)c1cc(O)cc(NC2=NCC(O)CN2)c1)c1ccccc1 (stereo partly shown) [Example C29, reference compound]
< 1	NC(=O)c1cc(Cl)cc([C@H](CC(=O)O)NC(=O)CNC(=O)c2cc(O)cc(NC3=NCC(O)CN3)c2)c1 (stereo partly shown) [Example C30, reference compound]
